Publication PMC10108740 (Journal of Medicinal Chemistry, 2023)

Key:
[1] = tested on: SARS-CoV-2 WA1 (USA-WA1/2020); test: Antiviral immunofluorescence assay, SARS-CoV-2 WA1 in Calu-3 cells; format: cell-based; settings: for EC50: Severe acute respiratory syndrome coronavirus 2, Calu-3, WA1, Calu-3 cells, read-out: EC50; for EC50 / EC90: immunofluorescence, 44 hpi, mean ± SD; for EC90: Severe acute respiratory syndrome coronavirus 2, WA1, Calu-3 cells; for fold lower EC50 compared to V2043: Calu-3 and Huh7.5 cells; for fold more active than RDV: Calu-3 cells, based on EC50; for fold more active than 116-N1, the parent nucleoside of VV116: own EC50 compared with 116-N1 of ref 15
[2] = in vitro; settings: human
[3] = tested on: SARS-CoV-2 (WA-1); test: Antiviral immunofluorescence assay, SARS-CoV-2 WA1 in Huh7.5 cells; format: cell-based; settings: Severe acute respiratory syndrome coronavirus 2, WA-1, Huh7.5 cells, immunofluorescence, 48 hpi; for EC50: read-out: EC50; for EC90: read-out: EC90
[4] = in vitro; settings: human; remark: listed apart in the source

| Compound | EC50 [1] | EC90 [1] | CC50 at 44 h [2] | fold lower EC50 compared to V2043 [1] | fold more active than RDV [1] | fold more active than 116-N1, the parent nucleoside of VV116 [1] | EC50 [3] | EC90 [3] | CC50 at 48 h [4] |
| --- | --- | --- | --- | --- | --- | --- | --- | --- | --- |
| CCCCCCCCCCCCCCCCCCOC[C@@H](COP(=O)(O)OC[C@H]1O[C@@](C#N)(c2ccc3c(N)ncnn23)[C@H](O)[C@@H]1O)OCc1ccccc1 [Compound 9b, ((2R,3S,4R,5R)-5-(4-Aminopyrrolo[2,1-f][1,2,4]triazin-7-yl)-5-cyano-3,4-dihydroxytetrahydrofuran-2-yl)methyl ((S)-2-(benzyloxy)-3-(octadecyloxy)propyl) hydrogen phosphate] | 160 ± 24 nM | 625 ± 195 nM | 93400 nM | – | – | – | – | – | – |
| CCCCCCCCCCCCCCCCCCOC[C@H](COP(=O)(O)OC[C@H]1O[C@@](C#N)(c2ccc3c(N)ncnn23)[C@H](O)[C@@H]1O)OCc1cccc(C#N)c1 [Compound 9k, ((2R,3S,4R,5R)-5-(4-Aminopyrrolo[2,1-f][1,2,4]triazin-7-yl)-5-cyano-3,4-dihydroxytetrahydrofuran-2-yl)methyl ((R)-2-((3-cyanobenzyl)oxy)-3-(octadecyloxy)propyl) hydrogen phosphate] | 34 ± 7 nM | 65 ± 36 nM | 61600 nM | 3–5.5 fold | 6.7 fold | 9.1 fold | 24 ± 6 nM | 77 ± 17 nM | 49600 nM |
| CCCCCCCCCCCCCCCCCCOC[C@H](COP(=O)(O)OC[C@H]1O[C@@](C#N)(c2ccc3c(N)ncnn23)[C@H](O)[C@@H]1O)OCc1ccc(C(F)(F)F)cc1 [Compound 9f, ((2R,3S,4R,5R)-5-(4-Aminopyrrolo[2,1-f][1,2,4]triazin-7-yl)-5-cyano-3,4-dihydroxytetrahydrofuran-2-yl)methyl ((R)-3-(octadecyloxy)-2-((4-(trifluoromethyl)benzyl)oxy)propyl) hydrogen phosphate] | 177 ± 12 nM | 408 ± 181 nM | 90200 nM | – | – | – | – | – | – |
| CCCCCCCCCCCCCCCCCCOC[C@H](COP(=O)(O)OC[C@H]1O[C@@](C#N)(c2ccc3c(N)ncnn23)[C@H](O)[C@@H]1O)OCc1cccc(C(F)(F)F)c1 [Compound 9e, ((2R,3S,4R,5R)-5-(4-Aminopyrrolo[2,1-f][1,2,4]triazin-7-yl)-5-cyano-3,4-dihydroxytetrahydrofuran-2-yl)methyl ((R)-3-(octadecyloxy)-2-((3-(trifluoromethyl)benzyl)oxy)propyl) hydrogen phosphate] | 160 ± 93 nM | 316 ± 83 nM | 66900 nM | – | – | – | – | – | – |
| CCCCCCCCCCCCCCCCCCOC[C@H](COP(=O)(O)OC[C@H]1O[C@@](C#N)(c2ccc3c(N)ncnn23)[C@H](O)[C@@H]1O)OCc1ccc(C#N)cc1 [Compound 9j, ((2R,3S,4R,5R)-5-(4-Aminopyrrolo[2,1-f][1,2,4]triazin-7-yl)-5-cyano-3,4-dihydroxytetrahydrofuran-2-yl)methyl ((R)-2-((4-cyanobenzyl)oxy)-3-(octadecyloxy)propyl) hydrogen phosphate] | 43 ± 13 nM | 82 ± 22 nM | 60200 nM | 3–5.5 fold | 5.3 fold | 11.5 fold | 24 ± 2 nM | 70 ± 10 nM | 47200 nM |
| CCCCCCCCCCCCCCCCCCOC[C@H](COP(=O)(O)OC[C@H]1O[C@@](C#N)(c2ccc3c(N)ncnn23)[C@H](O)[C@@H]1O)OCc1ccccc1C#N [Compound 9l, ((2R,3S,4R,5R)-5-(4-Aminopyrrolo[2,1-f][1,2,4]triazin-7-yl)-5-cyano-3,4-dihydroxytetrahydrofuran-2-yl)methyl ((R)-2-((2-cyanobenzyl)oxy)-3-(octadecyloxy)propyl) hydrogen phosphate] | 91 ± 25 nM | 186 ± 47 nM | 82800 nM | – | – | – | 102 ± 17 nM | 281 ± 30 nM | > 100000 nM |
